Some results are limits rather than exact numbers.

For experiment [1], the target named is T1, Human OX1 receptor (Homo sapiens, UniProt O43613).
T1 sequence (O43613 1-425): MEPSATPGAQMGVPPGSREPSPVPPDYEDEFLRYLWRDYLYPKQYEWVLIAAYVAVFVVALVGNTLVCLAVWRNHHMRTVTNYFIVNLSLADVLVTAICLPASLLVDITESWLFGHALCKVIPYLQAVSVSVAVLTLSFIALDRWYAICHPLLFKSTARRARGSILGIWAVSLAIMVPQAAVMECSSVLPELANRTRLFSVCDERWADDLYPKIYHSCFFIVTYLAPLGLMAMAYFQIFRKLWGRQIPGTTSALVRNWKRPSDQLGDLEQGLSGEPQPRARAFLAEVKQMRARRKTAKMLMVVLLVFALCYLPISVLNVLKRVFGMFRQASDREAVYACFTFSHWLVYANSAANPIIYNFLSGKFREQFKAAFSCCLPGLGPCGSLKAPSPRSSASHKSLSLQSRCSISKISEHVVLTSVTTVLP
Description: IPone accumulation assay, CHO cells expressing human OX1 receptor. The format is cell-based. To be noted: antagonism of orexin A (EC80) induced inositol phosphate turnover, read-out: fpKb average OX1 (converted). On the procedure:
(§1) Stable cell lines for the human OX1R and OX2R receptors were generated through the transfection of CHO cells using the transfection reagent Genejuice (Novagen number 70967) and cDNA coding for either the human OX1R or OX2R. Cells were cultured in Sigma Nutrient Mixture F-12 Ham media (catalog number N6658) supplemented with 10% heat-inactivated FBS. Forty-eight hours after transfection, cells were harvested and placed under geneticin selection by culturing in Sigma Nutrient Mixture F-12 Ham media supplemented with 10% heat-inactivated FBS and geneticin (ThermoFisher Catalog number: 10131035). Selection of the final stable clone for each receptor was made on the basis of receptor expression, assay signal to noise and robustness though increasing passage. Selected clones for the human OX1R and OX2R were then frozen down into liquid nitrogen using Cell Freezing Medium-DMSO (Sigma-Aldrich catalog number: C6164).
(§2) IPone accumulation assay. A CHO cell line stably expressing either human OX1 or OX2 receptor was used with the IPone HTRF assay kit (CisBio: Part #62IPAPEJ) to measure receptor activation. The assay was optimised to measure the ability (potency; fpKb) of antagonists to reduce agonist (orexin A)-induced inositol phosphate turnover. Briefly, cells were plated onto half area 96-well white walled plates at a density of 12,500 cells/well. Sixteen hours post-plating cell growth media was replaced with antagonist concentration-response curve diluted in stimulation buffer (supplied with the kit). Cells were incubated in a humidified incubator (37° C.) for 30 min before an EC80 challenge concentration (˜20 nM (OX1) and 40 nM (OX2)) of orexin A (Tocris catalogue number 1455). After 30 min stimulation in a humidified incubator (37° C.) the assay was terminated by the addition of detection mixture as per manufacturer's instructions. The concentration of compound which reduced orexin-A stimulated turnover of inositol phosphates by 50% (IC50) was calculated by fitting to a four parameter sigmoidal dose response curve. The IC50 values were converted to fpKB values using the orexin A pEC50 value estimated on each plate as well as the challenge concentration interpolated from the orexin A control curve.

Experiment [2] has as its target T2, Human OX2 receptor (Homo sapiens, UniProt O43614).
T2 sequence (O43614 1-444): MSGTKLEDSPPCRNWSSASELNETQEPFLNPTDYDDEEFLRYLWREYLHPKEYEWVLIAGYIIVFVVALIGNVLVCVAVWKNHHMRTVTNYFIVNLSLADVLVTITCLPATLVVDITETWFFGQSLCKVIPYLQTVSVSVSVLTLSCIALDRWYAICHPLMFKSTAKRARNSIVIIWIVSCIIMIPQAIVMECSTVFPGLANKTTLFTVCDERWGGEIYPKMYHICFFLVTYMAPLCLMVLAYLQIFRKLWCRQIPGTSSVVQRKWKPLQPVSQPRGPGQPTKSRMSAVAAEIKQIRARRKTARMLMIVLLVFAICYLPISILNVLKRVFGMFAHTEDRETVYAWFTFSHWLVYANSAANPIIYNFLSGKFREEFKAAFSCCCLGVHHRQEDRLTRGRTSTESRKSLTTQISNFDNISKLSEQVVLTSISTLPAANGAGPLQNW
Description: IPone accumulation assay, CHO cells expressing human OX2 receptor. The experiment is classed as cell-based. The settings on record: antagonism of orexin A (EC80) induced inositol phosphate turnover, read-out: fpKb average OX2. The protocol: as §1
as §2, with “Cells were incubated in a humidified incubator (37° C.) for 30 min before an EC80 challenge concentration (˜20 nM (OX1) and 40 nM (OX2)) of orexin A (Tocris catalogue number 1455).” left out

The target of experiment [3] is T1, Human OX1 receptor. Description: [3H]-radioligand binding assay, human OX1 receptor membranes.
Description: (§3) Human OX1 or OX2 receptor were cloned into Invitrogen's (ThermoFisher Scientific, UK) Bac-to-Bac Baculovirus Expression System. P0 baculovirus was generated by transfecting SF9 cells with bacmid DNA using Cellfectin® II transfection reagent (ThermoFisher Scientific, UK, Catalog number 10362-100). Following P0 generation P1 virus was then generated ready for large scale infection and membrane preparation. SF21 cells were grown in expression medium ESF921 (Expression Systems, USA, catalog number 96-001-01) supplemented with 10% heat-inactivated FBS and 1% Pen/Strep and were infected at a cell density of 2.5×10^6 cells/mL and a multiplicity of infection of 1.0 for both human OX1R and OX2R. Incubation was carried out at over 48 h in a shaking incubator set at 27° C. The cell culture was then centrifuged at 2,500 rcf for 10 min at 4° C. The pellets were resuspended in cold PBS supplemented with Roche's Complete EDTA-free protease inhibitor cocktail tablets (Roche Applied Sciences, catalog number 05056489001), 1 mM PMSF and 1 mM EDTA. The resuspended cell paste was then centrifuged at 3,273 rcf for 12 min at 4° C. The supernatant was discarded and the pellet frozen at −80° C. The cell pellet from a 4 L culture was resuspended in buffer containing 50 mM HEPES pH 7.5, 150 mM NaCl, 8 Roche EDTA-Free protease inhibitor cocktail tablets and 1 mM PMSF. The suspension was left stirring at rt for 1 h and then homogenised for 90 s at 9,500 rpm using a VDI 25 (VWR, USA) homogeniser. The cells were then lysed using a Microfluidiser processor M-110L Pneumatic (Microfluidics, USA) at 60 PSI and membranes collected by ultracentrifugation at 204.7 k×g for 1 h. The supernatant was discarded and the pellet was resuspended and homogenised in 90 s at 9,500 rpm in 50 mL (25 mL for each 2 L culture) of buffer containing 50 mM Hepes pH 7.5, 150 mM NaCl, 3 Roche EDTA-free protease inhibitor cocktail tablets and 1 mM PMSF. The resulting membranes were then stored at −80° C.
(§4) [^3H]-radioligand binding assay. After thawing, membrane homogenates were re-suspended in the binding buffer (8.5 mM HEPES, pH 7.4, 1.3 mM CaCl2, 1.2 mM MgSO4, 118 mM NaCl, 4.7 mM KCl, 4 mM NaHCO3, 1.2 mM KH2PO4, 11 mM glucose) to a final assay concentration of 6.4 μg (OX1) or 1.4 μg (OX2) protein per well. Saturation isotherms were determined by the addition of various concentrations (0-30 nM) of [^3H]-4-(2,6-difluoro-4-methoxybenzyl)-2-(5,6-dimethoxypyridin-3-yl)-2H-1,2,4-benzothiadiazin-3(4H)-one 1,1-dioxide (Christopher et al, MedChemComm., 2015, 6, 947-955) in a total reaction volume of 250 μL for 90 min at rt. At the end of the incubation, membranes were filtered onto a 96-well GF/B filter pre-incubated with 0.5% polyethylenimine, with a Tomtec cell harvester and washed 5 times with 0.5 mL distilled water. Non-specific binding (NSB) was measured in the presence of 3.33 μM [4-(5-chloro-1,3-benzoxazol-2-yl)-7-methyl-1,4-diazepan-1-yl][5-methyl-2-(2H-1,2,3-triazol-2-yl)phenyl]methanone (Wertz et al, Angew. Chem. Int. Ed., 2011, 50, 11511-11515). Radioactivity on the filter was counted (1 min) on a Microbeta radiometric plate counter (Perkin Elmer) after addition of 50 μL of scintillation fluid (LabLogic: Part #SG-BXX-14). […] IC50 values were derived from the inhibition curve and the equilibrium dissociation constant (Ki) values were calculated using the Cheng-Prusoff equation.
The target in experiment [4] is T2, Human OX2 receptor. Description: [3H]-radioligand binding assay, human OX2 receptor membranes.
Description: as §3, §4

What is called Ki is a measure of affinity in units of concentration, obtained from inhibition or displacement. Consider `[2H]C([2H])(Oc1ccc(F)cc1)[C@H]1CCC[C@@H]1NC(=O)c1c(OC)cccc1-n1nccn1` [Example 7, N-[(1S,2S)-2-[dideuterio-(4-fluorophenoxy)methyl]cyclopentyl]-2-methoxy-6-(triazol-2-yl)benzamide], for which the figures for the Kb in experiment [1] and in experiment [2] were 0.794 nM and above 794 nM, respectively. In addition, the inhibition constant (Ki) is 2.51 nM in experiment [3] and 158 nM in experiment [4].

Take `[2H]C([2H])([2H])Oc1cccc(-n2nccn2)c1C(=O)N[C@H]1CCC[C@@H]1COc1ccc(F)cc1` [Example 14, N-[(1S,2S)-2-[(4-fluorophenoxy)methyl]cyclopentyl]-2-(triazol-2-yl)-6-(trideuteriomethoxy)benzamide]: the Kb in experiment [1] was 1 nM; in experiment [2], above 501 nM. Also, the Ki was 1.26 nM in experiment [3] and 126 nM in experiment [4].

On to `COc1cccc(-n2nccn2)c1C(=O)N[C@H]1CCC[C@@H]1COc1ccc(F)cc1` [Example 5, N-[(1S,2S)-2-[(4-fluorophenoxy)methyl]cyclopentyl]-2-methoxy-6-(triazol-2-yl)benzamide], for which the figures for the Kb in experiment [1] and in experiment [2] were 1.58 nM and above 501 nM, respectively. In addition, the results for the inhibition constant Ki in experiment [3] and in experiment [4] were 1.58 nM and 200 nM, respectively.

On to `COc1cccc(-c2ncccn2)c1C(=O)N[C@H]1CCC[C@@H]1COc1ccc(F)cc1` [Example 9, N-[(1S,2S)-2-[(4-fluorophenoxy)methyl]cyclopentyl]-2-methoxy-6-pyrimidin-2-yl-benzamide], for which the Kb in experiment [1] is 10 nM. The Ki in experiment [3] was 3.98 nM.

Consider `COc1cccc(-c2ncc(F)cn2)c1C(=O)N[C@H]1CCC[C@@H]1COc1ccc(F)cc1` [Example 13, N-[(1S,2S)-2-[(4-fluorophenoxy)methyl]cyclopentyl]-2-(5-fluoropyrimidin-2-yl)-6-methoxy-benzamide], for which the Kb in experiment [1] is 31.6 nM; in experiment [2], above 631 nM. In addition, the Ki in experiment [3] is 12.6 nM; in experiment [4] it was 1580 nM.

With `COc1nccc(-c2ncccn2)c1C(=O)N[C@H]1CCC[C@@H]1COc1ccc(F)cc1` [Example 30, N-[(1S,2S)-2-[(4-fluorophenoxy)methyl]cyclopentyl]-2-methoxy-4-pyrimidin-2-yl-pyridine-3-carboxamide], the results for the Kb in experiment [1] and in experiment [2] were 25.1 nM and above 631 nM, respectively. Also, the Ki in experiment [3] is 7.94 nM; in experiment [4], above 1260 nM.

For orientation: Kd means the equilibrium constant for the complex coming apart. In the case of `COc1cc(F)c(CN2C(=O)N(c3cnc(OC)c(OC)c3)S(=O)(=O)c3ccccc32)c(F)c1` [[^3H]-4-(2,6-difluoro-4-methoxybenzyl)-2-(5,6-dimethoxypyridin-3-yl)-2H-1,2,4-benzothiadiazin-3(4H)-one 1,1-dioxide, reference compound], the Kd was 1.5 nM in experiment [3] (read-out: KD value of the radioligand, OX1, saturation isotherms) and 0.75 nM in experiment [4] (read-out: KD value of the radioligand, OX2, saturation isotherms).

In the case of `Cc1ccc(-c2ncccn2)c(C(=O)N[C@H]2CCC[C@@H]2COc2ccc(F)cc2)n1` [Example 24, N-[(1S,2S)-2-[(4-fluorophenoxy)methyl]cyclopentyl]-6-methyl-3-pyrimidin-2-yl-pyridine-2-carboxamide], the Kb in experiment [1] was 15.8 nM; in experiment [2], above 631 nM. Further, the figures for the Ki in experiment [3] and in experiment [4] were 15.8 nM and above 3980 nM, respectively.

On to `COc1ccc(-n2nccn2)c(C(=O)N[C@H]2CCC[C@@H]2COc2ccc(F)cc2)n1` [Example 20, N-[(1S,2S)-2-[(4-fluorophenoxy)methyl]cyclopentyl]-6-methoxy-3-(triazol-2-yl)pyridine-2-carboxamide], for which the Kb is 100 nM in experiment [1] and above 1260 nM in experiment [2]. Besides, the Ki is 7.94 nM in experiment [3] and above 5010 nM in experiment [4].

For `O=C(N[C@H]1CCC[C@@H]1COc1ccc(F)cc1)c1ccccc1-n1nccn1` [Example 1, N-[(1S,2S)-2-[(4-fluorophenoxy)methyl]cyclopentyl]-2-(triazol-2-yl)benzamide], the Kb in experiment [1] is 126 nM; in experiment [2], above 1580 nM. The Ki was 10 nM in experiment [3] and above 3160 nM in experiment [4].

Regarding `COc1cccc(-c2cnccn2)c1C(=O)N[C@H]1CCC[C@@H]1COc1ccc(F)cc1` [Example 11, N-[(1S,2S)-2-[(4-fluorophenoxy)methyl]cyclopentyl]-2-methoxy-6-pyrazin-2-yl-benzamide], the Kb in experiment [1] is 20 nM; in experiment [2], above 631 nM. This molecule also had a Ki in experiment [3] of 7.94 nM.

On to `COc1ccc(F)c(-n2nccn2)c1C(=O)N[C@H]1CCC[C@@H]1COc1ccc(F)cc1` [Example 16, 3-fluoro-N-[(1S,2S)-2-[(4-fluorophenoxy)methyl]cyclopentyl]-6-methoxy-2-(triazol-2-yl)benzamide], for which the values for the Kb in experiment [1] and in experiment [2] were 20 nM and above 631 nM, respectively. The Ki in experiment [3] was 12.6 nM; in experiment [4], 1580 nM.

Regarding `O=C(N[C@H]1CCC[C@@H]1COc1ccc(F)cc1)c1c(F)cccc1-c1ncccn1` [Example 10, 2-fluoro-N-[(1S,2S)-2-[(4-fluorophenoxy)methyl]cyclopentyl]-6-pyrimidin-2-yl-benzamide], the Kb was 20 nM in experiment [1] and above 631 nM in experiment [2]. The Ki is 6.31 nM in experiment [3] and 1580 nM in experiment [4].

Turning to `O=C(N[C@H]1CCC[C@@H]1COc1ccc(F)c(F)c1)c1ncccc1-c1ncccn1` [Example 28, N-[(1S,2S)-2-[(3,4-difluorophenoxy)methyl]cyclopentyl]-3-pyrimidin-2-yl-pyridine-2-carboxamide], the Kb in experiment [1] was 100 nM; in experiment [2] it was above 2510 nM. The inhibition constant Ki in experiment [3] was 25.1 nM; in experiment [4], above 1260 nM.

In the case of `Cc1ccc(-n2nccn2)c(C(=O)N[C@H]2CCC[C@@H]2COc2ccc(F)cc2)c1` [Example 3, N-[(1S,2S)-2-[(4-fluorophenoxy)methyl]cyclopentyl]-5-methyl-2-(triazol-2-yl)benzamide], the Ki in experiment [3] is 15.8 nM; in experiment [4], above 1260 nM.

Take `COc1cccc(-n2nccn2)c1C(=O)N[C@H]1CCC[C@@H]1COc1ccc(F)cn1` [Example 31, N-[(1S,2S)-2-[(5-fluoro-2-pyridyl)oxymethyl]cyclopentyl]-2-methoxy-6-(triazol-2-yl)benzamide]: the Kb in experiment [1] was 10 nM. Further, the affinity in experiment [3], expressed as Ki, was 6.31 nM.

As for `[2H]C([2H])([2H])Oc1cccc(-n2nccn2)c1C(=O)N[C@H]1CCC[C@@H]1COc1ccc(F)cn1` [Example 33, N-[(1S,2S)-2-[(5-fluoro-2-pyridyl)oxymethyl]cyclopentyl]-2-(triazol-2-yl)-6-(trideuteriomethoxy)benzamide], the Kb in experiment [1] was 15.8 nM. This molecule also had a Ki in experiment [3] of 3.98 nM.
